We go through 6 compounds from ChEMBL document CHEMBL1201862, “PubChem BioAssay data set” (2004).

In assay [1] the target is T1, High affinity choline transporter 1 (Homo sapiens, UniProt Q9GZV3).
T1 sequence (Q9GZV3 whole entry): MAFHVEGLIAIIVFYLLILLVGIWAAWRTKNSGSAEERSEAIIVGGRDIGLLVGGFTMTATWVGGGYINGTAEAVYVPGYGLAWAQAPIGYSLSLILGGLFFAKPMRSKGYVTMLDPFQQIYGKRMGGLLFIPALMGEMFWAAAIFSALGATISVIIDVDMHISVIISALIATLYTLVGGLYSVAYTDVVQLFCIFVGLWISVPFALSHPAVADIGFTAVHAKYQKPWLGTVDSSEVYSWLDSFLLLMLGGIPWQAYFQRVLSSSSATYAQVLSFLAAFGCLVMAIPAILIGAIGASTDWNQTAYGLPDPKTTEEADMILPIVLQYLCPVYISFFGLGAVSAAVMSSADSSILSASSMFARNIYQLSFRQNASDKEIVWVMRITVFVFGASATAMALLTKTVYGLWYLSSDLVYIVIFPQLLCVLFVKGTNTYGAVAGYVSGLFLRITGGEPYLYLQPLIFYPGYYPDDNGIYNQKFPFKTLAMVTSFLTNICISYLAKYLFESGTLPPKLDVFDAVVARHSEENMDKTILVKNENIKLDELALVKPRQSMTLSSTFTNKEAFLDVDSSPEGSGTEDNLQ
The assay can be described thus: CHT inhibitors, dose response, cell-based, 5-point CRC, membrane potential dye (AID 504840). Format: functional.

For assay [2], the target named is T1, High affinity choline transporter 1. The assay can be described thus: CHT inhibitors, dose response, cell-based, 10-point CRC, membrane potential dye (AID 588401).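 Note: membrane potential dye fluorescence of choline-evoked depolarization via CHT.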 The format is functional.
In the next assay the target is T2, Protein RecA (Mycobacterium tuberculosis, UniProt P9WHJ3).
T2 sequence (P9WHJ3 whole entry): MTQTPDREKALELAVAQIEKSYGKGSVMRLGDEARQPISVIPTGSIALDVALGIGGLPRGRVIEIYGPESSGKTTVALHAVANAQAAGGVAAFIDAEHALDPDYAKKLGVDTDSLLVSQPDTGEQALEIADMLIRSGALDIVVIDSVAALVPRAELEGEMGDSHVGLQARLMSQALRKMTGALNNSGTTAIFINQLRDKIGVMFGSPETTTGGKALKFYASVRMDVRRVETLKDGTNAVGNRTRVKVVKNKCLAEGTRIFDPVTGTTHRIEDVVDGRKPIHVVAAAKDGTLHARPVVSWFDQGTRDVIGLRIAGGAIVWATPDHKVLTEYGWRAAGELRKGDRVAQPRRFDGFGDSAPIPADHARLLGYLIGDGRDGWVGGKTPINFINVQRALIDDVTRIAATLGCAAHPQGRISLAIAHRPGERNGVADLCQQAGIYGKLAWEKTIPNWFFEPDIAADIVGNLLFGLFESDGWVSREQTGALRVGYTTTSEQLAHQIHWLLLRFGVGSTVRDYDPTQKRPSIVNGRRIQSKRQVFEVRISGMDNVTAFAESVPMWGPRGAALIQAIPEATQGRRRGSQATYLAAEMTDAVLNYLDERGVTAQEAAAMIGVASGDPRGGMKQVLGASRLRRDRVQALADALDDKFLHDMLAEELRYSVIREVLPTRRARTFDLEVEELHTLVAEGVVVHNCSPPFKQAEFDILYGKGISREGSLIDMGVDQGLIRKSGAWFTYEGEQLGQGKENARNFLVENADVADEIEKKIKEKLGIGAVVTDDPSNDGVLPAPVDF
Put plainly: Fluorescence Cell-Free Homogeneous Dose Retest to Identify Inhibitors of RecA-Intein Splicing Activity. [Related pubchem assays (depositor defined):AID2097, AID2223, AID489010, AID492950]. The format is functional.

A short description of assay [3]: Shn3 3'UTR reporter inhibitors, dose response, cell-based, Clone20 osteoblasts, firefly luciferase, cherry-picked (AID 624132).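 Note: firefly luciferase luminescence from reporter carrying the Shn3 3'UTR in osteoblasts.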 The format is functional.
The nature of assay [4]: control 3'UTR Renilla luciferase suppression, dose response, counter-screen for Shn3 inhibitor project, cell-based, Clone20-Shn3RL, cherry-picked (AID 624133). Format: functional. On the technique in general: The purpose of a counterscreen is to sort out artefacts and off-target activity.
The target of assay [5] is T3, Replicative DNA helicase DnaB (Mycobacterium tuberculosis, UniProt P9WMR3).
T3 sequence (P9WMR3 whole entry): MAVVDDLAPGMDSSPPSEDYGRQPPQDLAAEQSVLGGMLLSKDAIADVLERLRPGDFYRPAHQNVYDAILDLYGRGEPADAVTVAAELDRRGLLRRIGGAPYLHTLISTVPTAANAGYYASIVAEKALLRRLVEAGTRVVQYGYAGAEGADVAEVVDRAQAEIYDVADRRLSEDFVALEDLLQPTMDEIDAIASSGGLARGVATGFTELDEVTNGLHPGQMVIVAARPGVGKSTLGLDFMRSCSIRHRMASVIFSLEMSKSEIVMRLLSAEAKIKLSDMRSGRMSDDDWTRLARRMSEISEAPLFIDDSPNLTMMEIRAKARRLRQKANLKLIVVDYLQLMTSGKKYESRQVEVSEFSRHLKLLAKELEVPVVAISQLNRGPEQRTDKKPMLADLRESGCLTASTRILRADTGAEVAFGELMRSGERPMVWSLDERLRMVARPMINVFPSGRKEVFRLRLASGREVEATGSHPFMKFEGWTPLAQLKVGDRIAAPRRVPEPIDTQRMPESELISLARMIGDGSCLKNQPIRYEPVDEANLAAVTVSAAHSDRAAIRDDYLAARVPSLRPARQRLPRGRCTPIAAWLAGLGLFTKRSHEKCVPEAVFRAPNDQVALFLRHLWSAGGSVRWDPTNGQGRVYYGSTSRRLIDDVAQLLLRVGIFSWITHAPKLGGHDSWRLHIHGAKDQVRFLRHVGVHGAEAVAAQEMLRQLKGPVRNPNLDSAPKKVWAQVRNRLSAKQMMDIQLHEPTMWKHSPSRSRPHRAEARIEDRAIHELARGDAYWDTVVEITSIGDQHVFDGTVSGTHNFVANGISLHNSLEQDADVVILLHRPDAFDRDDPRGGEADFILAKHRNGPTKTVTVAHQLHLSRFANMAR
The assay can be described thus: DnaB intein splicing inhibitors, dose response, biochemical, cell-free fluorescence (AID 449749). Format: functional.

In assay [6] the target is Potassium voltage-gated channel subfamily KQT member 2 (Rattus norvegicus, UniProt O88943, W236L). The assay can be described thus: KCNQ2 channel potentiators, dose response, mechanism study for KCNQ2 potentiator project, cell-based, automated electrophysiology (AID 2603). The format is functional.
Potassium voltage-gated channel subfamily KQT member 2, sequence (O88943 whole entry W236L): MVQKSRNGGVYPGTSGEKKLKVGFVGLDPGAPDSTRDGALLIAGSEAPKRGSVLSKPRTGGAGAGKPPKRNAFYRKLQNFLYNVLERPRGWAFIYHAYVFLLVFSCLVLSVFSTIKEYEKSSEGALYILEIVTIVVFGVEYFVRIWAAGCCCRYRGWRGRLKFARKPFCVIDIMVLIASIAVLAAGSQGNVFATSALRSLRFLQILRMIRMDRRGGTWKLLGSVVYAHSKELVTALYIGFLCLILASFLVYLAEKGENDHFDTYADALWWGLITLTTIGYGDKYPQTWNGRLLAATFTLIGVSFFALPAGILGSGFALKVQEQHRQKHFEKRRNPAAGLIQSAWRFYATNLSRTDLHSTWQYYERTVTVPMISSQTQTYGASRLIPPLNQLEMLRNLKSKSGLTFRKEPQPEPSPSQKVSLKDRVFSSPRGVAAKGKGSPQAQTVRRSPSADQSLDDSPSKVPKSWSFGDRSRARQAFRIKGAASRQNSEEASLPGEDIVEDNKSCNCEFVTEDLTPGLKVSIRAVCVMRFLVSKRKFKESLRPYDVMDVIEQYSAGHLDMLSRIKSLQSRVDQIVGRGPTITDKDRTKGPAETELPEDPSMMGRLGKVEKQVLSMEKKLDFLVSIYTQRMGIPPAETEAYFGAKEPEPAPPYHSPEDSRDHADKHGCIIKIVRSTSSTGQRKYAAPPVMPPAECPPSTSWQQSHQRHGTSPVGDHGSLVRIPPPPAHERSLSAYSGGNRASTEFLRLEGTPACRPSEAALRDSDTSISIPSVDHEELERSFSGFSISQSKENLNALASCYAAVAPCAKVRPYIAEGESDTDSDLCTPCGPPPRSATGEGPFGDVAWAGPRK
For the next assay, the system named is Vero. The assay can be described thus: Vero cell cytotoxicity, cytotoxicity control for flavivirus capping enzyme inhibitors (AID 588742). The conditions noted are these: Chlorocebus sabaeus. Format: functional.
The target in assay [7] is T4, Microphthalmia-associated transcription factor (Homo sapiens, UniProt O75030).
T4 sequence (O75030 whole entry): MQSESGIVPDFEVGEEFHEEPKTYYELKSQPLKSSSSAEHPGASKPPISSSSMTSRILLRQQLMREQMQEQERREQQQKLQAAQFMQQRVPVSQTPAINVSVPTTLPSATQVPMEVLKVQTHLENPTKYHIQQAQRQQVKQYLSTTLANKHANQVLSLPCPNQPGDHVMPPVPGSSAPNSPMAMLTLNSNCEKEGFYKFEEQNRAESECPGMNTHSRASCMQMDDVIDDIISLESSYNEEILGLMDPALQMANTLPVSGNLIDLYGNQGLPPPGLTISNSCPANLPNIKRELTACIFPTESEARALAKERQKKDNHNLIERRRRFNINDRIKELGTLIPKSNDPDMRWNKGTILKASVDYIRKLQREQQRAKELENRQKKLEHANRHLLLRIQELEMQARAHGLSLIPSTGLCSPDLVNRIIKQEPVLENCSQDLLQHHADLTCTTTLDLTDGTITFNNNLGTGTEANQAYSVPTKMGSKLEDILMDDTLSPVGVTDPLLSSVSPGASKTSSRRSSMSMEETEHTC
The assay can be described thus: TRPM1 promoter luciferase signal decrease, dose response, MITF inhibitor project, cell-based, SK-MEL-5, cherry-picked, set 3 (AID 493073).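 Note: SK-MEL-5 melanoma cells with luciferase driven by the MITF target TRPM1 promoter.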 The format is functional.

The subject of another assay is HT-1080. Put plainly: cytotoxicity in HT1080 fibrosarcoma cells, cell-based, fluorescence readout (AID 620). Conditions: Homo sapiens. The format is functional.
Assay [8] concerns the target Luciferin 4-monooxygenase (Photinus pyralis, UniProt P08659). The assay can be described thus: Counter Screen for Luciferase-based Assay Positives. [Related pubchem assays: 620, 618, 411 ].
Assay [9] is described as follows: A Cell Based Secondary Assay To Explore Cytotoxicity of Compounds that Sensitize Mycobacterium Tuberculosis to Beta-Lactam Antibiotics. Format: functional.
A further assay deals with HEK293. Put plainly: Fluorescence-based counterscreen for potentiators or agonists of NPY-Y2: cell-based high-throughput dose response assay to identify inhibitors of cyclic nucleotide gated ion channel (CNGC) activity. In this assay, the parental HEK293 cell line transfected with a cyclic-nucleotide gated ion channel (CNGC)-based cAMP sensor is used to measure inhibition of isoproterenol-induced CNGC activity by test compound. Format: functional. The conditions noted are these: Homo sapiens.

Assay [10] has as its target T5, Neuropeptide Y receptor type 2 (Homo sapiens, UniProt P49146).
T5 sequence (P49146 whole entry): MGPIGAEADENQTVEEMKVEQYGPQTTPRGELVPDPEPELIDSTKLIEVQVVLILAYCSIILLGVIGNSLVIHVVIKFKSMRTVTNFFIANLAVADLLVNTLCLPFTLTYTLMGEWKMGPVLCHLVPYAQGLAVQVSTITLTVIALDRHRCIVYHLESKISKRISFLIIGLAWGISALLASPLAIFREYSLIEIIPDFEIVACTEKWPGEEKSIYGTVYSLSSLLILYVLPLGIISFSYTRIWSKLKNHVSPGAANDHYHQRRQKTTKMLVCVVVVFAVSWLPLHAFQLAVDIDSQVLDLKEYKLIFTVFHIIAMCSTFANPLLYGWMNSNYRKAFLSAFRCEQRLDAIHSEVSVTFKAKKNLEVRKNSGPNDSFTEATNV
The assay can be described thus: Fluorescence-based cell-based high-throughput dose response assay for agonists of NPY-Y2. [Related pubchem assays: 1703 (Screening assay (CNGC inhibitors).), 1359 (Screening assay (NPY-Y2 potentiators or agonists).), 1304 (Screening assay (NPY-Y1 potentiators or agonists).), 1710 (Screening assay (NPY-Y2 agonists).), 1791 (Summary AID.)]. Format: functional.

Assay [11] addresses T6, Neuropeptide Y receptor type 1 (Homo sapiens, UniProt P25929).
T6 sequence (P25929 whole entry): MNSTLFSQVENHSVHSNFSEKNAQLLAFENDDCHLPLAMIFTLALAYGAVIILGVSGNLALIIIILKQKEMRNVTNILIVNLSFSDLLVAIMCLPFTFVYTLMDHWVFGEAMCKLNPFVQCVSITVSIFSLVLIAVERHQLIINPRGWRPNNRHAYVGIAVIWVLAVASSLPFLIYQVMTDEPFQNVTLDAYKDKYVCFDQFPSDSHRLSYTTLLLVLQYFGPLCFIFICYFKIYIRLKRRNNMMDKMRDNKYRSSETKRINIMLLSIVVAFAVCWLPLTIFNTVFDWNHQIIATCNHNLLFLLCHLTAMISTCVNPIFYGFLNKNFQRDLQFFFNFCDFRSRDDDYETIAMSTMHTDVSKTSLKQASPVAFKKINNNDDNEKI
The assay can be described thus: Fluorescence-based counterscreen for agonists of NPY-Y2: cell-based high-throughput dose response assay for agonists of NPY-Y1. The format is functional.

Assay [12] in a line: Luminescent dose response cell-based high throughput screening assay for inhibitors of the Janus kinase 2 mutant JAK2V617F. [Related pubchem assays: 1446 (Primary screen.), 1521 (Confirmation assay.), 1486 (Counter screen.)]. The format is functional.
Assay [13] concerns the target T7, Polyadenylate-binding protein 1 (Homo sapiens, UniProt P11940). The assay can be described thus: PABP1 MLLE–PAM2 binding inhibitor potency, dose response, biochemical, fluorescence polarization, FITC-PAM2 peptide (AID 602259). The conditions noted are these: read-out: IC50_Mean. Format: functional. (In general: In fluorescence polarisation assays a small probe gives low polarisation when free and higher when bound to something large.)

The target in assay [14] is T7, Polyadenylate-binding protein 1. Put plainly: PABP1 MLLE–PAM2 interaction inhibitors, dose response, miRNA deadenylation inhibitor project, biochemical, fluorescence polarization, Cy5-PAM2 peptide, secondary (AID 602260). The format is functional. Conditions: read-out: IC50_Mean.

The source made the active and inactive calls.

Luciferin 4-monooxygenase, sequence (P08659 whole entry): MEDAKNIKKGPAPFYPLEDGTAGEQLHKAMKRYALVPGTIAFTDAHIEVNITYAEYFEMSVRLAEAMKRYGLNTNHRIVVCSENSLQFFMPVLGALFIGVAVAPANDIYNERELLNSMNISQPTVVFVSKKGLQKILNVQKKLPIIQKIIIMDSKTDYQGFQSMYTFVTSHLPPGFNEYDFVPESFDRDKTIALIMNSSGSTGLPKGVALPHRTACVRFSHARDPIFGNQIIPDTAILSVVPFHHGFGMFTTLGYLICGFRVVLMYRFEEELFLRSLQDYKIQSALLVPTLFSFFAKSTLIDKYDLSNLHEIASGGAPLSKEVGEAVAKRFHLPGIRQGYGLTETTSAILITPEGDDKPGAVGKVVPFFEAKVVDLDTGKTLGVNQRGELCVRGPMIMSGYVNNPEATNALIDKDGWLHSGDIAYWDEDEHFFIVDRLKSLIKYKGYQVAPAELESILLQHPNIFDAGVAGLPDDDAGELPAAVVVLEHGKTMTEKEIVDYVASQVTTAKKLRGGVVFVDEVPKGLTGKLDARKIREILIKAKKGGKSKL
T7 sequence (P11940 whole entry): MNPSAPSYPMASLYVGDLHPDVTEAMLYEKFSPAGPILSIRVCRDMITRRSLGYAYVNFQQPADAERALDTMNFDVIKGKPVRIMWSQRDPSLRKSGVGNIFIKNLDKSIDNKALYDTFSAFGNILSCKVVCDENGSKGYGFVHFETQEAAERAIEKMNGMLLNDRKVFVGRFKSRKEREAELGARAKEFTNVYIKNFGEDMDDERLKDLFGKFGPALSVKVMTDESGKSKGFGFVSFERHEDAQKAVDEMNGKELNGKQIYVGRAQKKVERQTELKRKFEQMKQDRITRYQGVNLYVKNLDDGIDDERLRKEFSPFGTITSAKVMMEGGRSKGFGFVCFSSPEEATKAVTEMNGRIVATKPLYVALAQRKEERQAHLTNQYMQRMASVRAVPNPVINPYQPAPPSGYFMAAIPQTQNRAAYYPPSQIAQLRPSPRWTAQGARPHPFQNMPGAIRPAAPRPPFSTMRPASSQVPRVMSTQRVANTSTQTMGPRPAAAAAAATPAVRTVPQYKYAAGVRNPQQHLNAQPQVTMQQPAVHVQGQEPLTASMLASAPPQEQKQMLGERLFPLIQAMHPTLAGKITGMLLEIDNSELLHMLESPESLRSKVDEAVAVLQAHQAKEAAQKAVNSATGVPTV

What is called EC50 is the concentration at which the effect is half-maximal. What is called AC50 is the midpoint of the concentration-response curve, whichever way the signal moves. As a reminder, the CC50 is the concentration at which the toxic effect on the cells reaches its halfway point. Take `Cc1ccc(CS(=O)(=O)c2ncc(Cl)c(C(=O)Nc3nnc(C)s3)n2)cc1`: the IC50 is 4.05 µM (active) in [1] and 3.98 µM (active) in assay [2]. The half-maximal effective concentration (EC50) was 16 µM (active) on Protein RecA and 5.4 µM (active) in assay [6]. The AC50 in assay [3] is 0.639 µM (active); in assay [4], 6.75 µM (active); in [5] it was 14.2 µM (active). Besides, the CC50 in the assay with Vero was 17.4 µM (active).

Regarding `COc1ccc(/C(O)=C\C=N\c2ccccn2)cc1`, the AC50 in assay [7] was 3.72 µM (active). The results for the EC50 (in the assay with HT-1080; in assay [8]) were > 50 µM (not active) and 73.2 µM (active), respectively.

As to `N#C/C(=C(/O)COC(=O)CCc1ccc(S(=O)(=O)N2CCOCC2)cc1)c1nc2ccccc2[nH]1`, in assay [9], the CC50 is > 40 µM (active).

Turning to `O=C(CCl)NC(=O)NC12CC3CC(CC(C3)C1)C2`, the EC50 on Protein RecA is 5.47 µM (active); in the assay on HEK293, > 35.4 µM (not active); in [10], > 35.4 µM (not active); in assay [11], > 35.4 µM (not active). Also, in assay [12], the IC50 is 0.87 µM (active). Besides, in assay [5], the AC50 is 12 µM (active).

Turning to `Cc1ccc(NC(=O)c2ccc3c(c2)OCCO3)cc1`, the results for the EC50 (in the assay on HT-1080; in assay [8]) were > 50 µM (not active) and 0.81 µM (active), respectively.

`CCC(=O)N1CCN(c2ccc(NC(=S)NC(=O)c3ccc(OC)c([N+](=O)[O-])c3)cc2)CC1`: in assay [9], the CC50 is > 40 µM (active). In addition, the IC50 in assay [13] and in assay [14] was > 66 µM (inactive) each time.
